Here are results for 8 molecules from patent publication US10479780B2, “Aminopyrazole derivatives” (Chugai Seiyaku Kabushiki Kaisha, priority 2015, dated 2019).

Where two headings read alike, the source gives them in different places.

Holding throughout (format): biochemical
One assay deals with T1, human Yes1 enzyme (Homo sapiens, UniProt P07947).
T1 construct: made in house
In words: Yes1 enzyme inhibitory activity (time-resolved fluorometry, biotinylated peptide phosphorylation). The note with it: read-out: YES_IC50. The gist of the method:
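Inhibition was expressed against a compound-free control to give IC50, using TR-FRET read-out (Eu-cryptate anti-pTyr antibody, streptavidin-XL665).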

For another assay, the target named is T2, human Src enzyme (Homo sapiens, UniProt P12931).
T2 construct: purchased Carna Biosciences, Inc. 08-173
In words: Src enzyme inhibitory activity (time-resolved fluorometry, biotinylated peptide phosphorylation). Conditions: read-out: SRC_IC50. In outline: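 Compounds were tested for blocking tyrosine phosphorylation of a biotinylated peptide substrate by recombinant human Src. Phosphorylated product was quantified by time-resolved fluorometry using europium cryptate and XL665 conjugates, and IC50 was calculated against the compound-free control.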

The target in the next assay is T3, human Lck enzyme (Homo sapiens, UniProt P06239).
T3 construct: purchased Carna Biosciences, Inc. 08-170
In words: Lck enzyme inhibitory activity (time-resolved fluorometry, biotinylated peptide phosphorylation). The note with it: read-out: LCK_IC50. The gist of the method: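 Readout pairs a europium cryptate-labelled anti-phosphotyrosine antibody with XL665-streptavidin, measured by time-resolved fluorescence. IC50 derived from percent inhibition against untreated controls.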

The mark [1] stands for this setting: biotinylated peptide phosphorylation.

T2 sequence (P12931 whole entry): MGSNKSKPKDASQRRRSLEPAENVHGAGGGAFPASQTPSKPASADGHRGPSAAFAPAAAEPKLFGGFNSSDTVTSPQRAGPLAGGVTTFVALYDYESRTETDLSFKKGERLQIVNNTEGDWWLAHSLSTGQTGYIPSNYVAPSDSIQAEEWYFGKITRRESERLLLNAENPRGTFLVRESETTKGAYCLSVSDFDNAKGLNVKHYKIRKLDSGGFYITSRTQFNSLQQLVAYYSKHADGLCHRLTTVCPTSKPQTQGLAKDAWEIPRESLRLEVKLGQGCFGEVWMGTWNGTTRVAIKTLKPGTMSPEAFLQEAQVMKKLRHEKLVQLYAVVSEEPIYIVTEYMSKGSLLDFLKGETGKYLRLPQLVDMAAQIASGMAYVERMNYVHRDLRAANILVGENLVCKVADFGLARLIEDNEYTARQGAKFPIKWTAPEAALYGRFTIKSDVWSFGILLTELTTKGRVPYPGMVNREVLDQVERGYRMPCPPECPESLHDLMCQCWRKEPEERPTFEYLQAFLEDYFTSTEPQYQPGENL
T1 sequence (P07947 whole entry): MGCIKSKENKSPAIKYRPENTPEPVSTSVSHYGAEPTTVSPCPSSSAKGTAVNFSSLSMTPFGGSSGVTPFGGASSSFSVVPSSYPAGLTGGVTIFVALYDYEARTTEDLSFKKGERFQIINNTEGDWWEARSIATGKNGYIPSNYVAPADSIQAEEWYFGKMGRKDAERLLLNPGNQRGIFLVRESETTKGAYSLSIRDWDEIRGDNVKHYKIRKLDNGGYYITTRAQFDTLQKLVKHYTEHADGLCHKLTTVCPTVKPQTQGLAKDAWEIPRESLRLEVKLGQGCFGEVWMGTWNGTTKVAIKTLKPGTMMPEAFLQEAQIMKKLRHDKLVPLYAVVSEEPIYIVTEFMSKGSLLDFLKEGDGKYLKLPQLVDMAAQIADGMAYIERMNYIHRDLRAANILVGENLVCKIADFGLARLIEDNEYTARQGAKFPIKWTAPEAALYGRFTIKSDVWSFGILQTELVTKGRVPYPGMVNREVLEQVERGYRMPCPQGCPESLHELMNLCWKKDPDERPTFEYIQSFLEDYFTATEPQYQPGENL
T3 sequence (P06239 whole entry): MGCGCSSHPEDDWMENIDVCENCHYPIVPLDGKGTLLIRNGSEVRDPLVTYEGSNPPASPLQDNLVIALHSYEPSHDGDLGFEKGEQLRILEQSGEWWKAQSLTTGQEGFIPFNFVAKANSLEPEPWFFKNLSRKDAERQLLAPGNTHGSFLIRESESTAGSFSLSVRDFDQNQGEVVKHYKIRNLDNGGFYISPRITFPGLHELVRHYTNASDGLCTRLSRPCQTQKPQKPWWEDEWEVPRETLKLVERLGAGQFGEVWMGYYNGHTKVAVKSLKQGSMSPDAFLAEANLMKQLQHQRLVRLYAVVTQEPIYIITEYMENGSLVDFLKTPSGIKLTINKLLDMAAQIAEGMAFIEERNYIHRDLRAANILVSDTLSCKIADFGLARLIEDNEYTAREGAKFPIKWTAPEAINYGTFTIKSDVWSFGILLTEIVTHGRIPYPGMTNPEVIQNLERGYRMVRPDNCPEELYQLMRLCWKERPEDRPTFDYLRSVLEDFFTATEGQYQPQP

`CC(=O)N1CCC(c2cc3[nH]c(C(=O)c4cnn(-c5c(C)cc(Oc6ccccc6F)cc5F)c4N)cc3cc2OC(F)F)CC1` [Example 4-17-005, 1-[4-[2-[5-amino-1-[2-fluoro-4-(2-fluorophenoxy)-6-methylphenyl]pyrazole-4-carbonyl]-5-(difluoromethoxy)-1H-indol-6-yl]piperidin-1-yl]ethanone]: the IC50 turned out to be 2.9 nM at human Yes1 enzyme (setting [1]), 36 nM at human Src enzyme (setting [1]) and 17 nM on human Lck enzyme (setting [1]).

Turning to `Cc1cc(Oc2ccccc2F)ccc1-n1ncc(C(=O)c2cc3cc(OC4CCN(C(C)C)CC4)c(NS(C)(=O)=O)cc3[nH]2)c1N` [Example 5-1-189, N-[2-[5-amino-1-[4-(2-fluorophenoxy)-2-methylphenyl]pyrazole-4-carbonyl]-5-(1-propan-2-ylpiperidin-4-yl)oxy-1H-indol-6-yl] methanesulfonamide], the IC50 was 0.38 nM at human Yes1 enzyme, 3.3 nM on human Src enzyme and 1.5 nM on human Lck enzyme.

For `Cc1cc2cc(C(=O)c3cnn(-c4cnc(Oc5ccccc5F)cc4C)c3N)[nH]c2cc1NS(=O)(=O)CC(=O)NC(C)C` [Example 5-1-058, 2-[[2-[5-amino-1-[6-(2-fluorophenoxy)-4-methylpyridin-3-yl]pyrazole-4-carbonyl]-5-methyl-1H-indol-6-yl]sulfamoyl]-N-propan-2-ylacetamide], the IC50 amounted to 1.6 nM on human Yes1 enzyme, 58 nM on human Src enzyme and 25 nM on human Lck enzyme.

In the case of `Cc1cc(-n2ncc(C(=O)c3cc4cc(OC5CCN(C(C)C)CC5)c(N5C(=O)N[C@@H](Cc6ccccc6)C5=O)cc4[nH]3)c2N)ccc1Oc1ccccc1F` [Example 5-1-294, (5S)-3-[2-[5-amino-1-[4-(2-fluorophenoxy)-3-methylphenyl]pyrazole-4-carbonyl]-5-(1-propan-2-ylpiperidin-4-yl)oxy-1H-indol-6-yl]-5-benzylimidazolidine-2,4-dione], the IC50 on human Yes1 enzyme worked out at 2.2 nM; at human Src enzyme, 960 nM; at human Lck enzyme, 110 nM.

On to `Cc1cc(-n2ncc(C(=O)c3cc4cc(N5CCOCC5)c(NS(C)(=O)=O)cc4[nH]3)c2N)ccc1Oc1ccccc1F` [Example 5-1-157, N-[2-[5-amino-1-[4-(2-fluorophenoxy)-3-methylphenyl]pyrazole-4-carbonyl]-5-morpholin-4-yl-1H-indol-6-yl] methanesulfonamide], for which the IC50 amounted to 1.9 nM on human Yes1 enzyme, 1100 nM on human Src enzyme and 480 nM on human Lck enzyme.

Turning to `Cc1cc(Oc2ccccc2F)ccc1-n1ncc(C(=O)c2cc3cc(F)c(NS(N)(=O)=O)cc3[nH]2)c1N` [Example 4-20-001, 2-[5-amino-1-[4-(2-fluorophenoxy)-2-methylphenyl]pyrazole-4-carbonyl]-5-fluoro-6-(sulfamoylamino)-1H-indole], the IC50 on human Yes1 enzyme (setting [1]) came out at 0.64 nM; at human Src enzyme (setting [1]), 31 nM; at human Lck enzyme (setting [1]), 3.5 nM.

As for `Cc1cc2cc(C(=O)c3cnn(-c4cnc(Oc5ccccc5F)cc4C)c3N)[nH]c2cc1NS(=O)(=O)c1cccc(C#N)c1` [Example 5-1-440, N-[2-[5-amino-1-[6-(2-fluorophenoxy)-4-methylpyridin-3-yl]pyrazole-4-carbonyl]-5-mothyl-1H-indol-6-yl]-3-cyanobenzenesulfonamide], the IC50 on human Yes1 enzyme (setting [1]) was determined as 3.7 nM; at human Src enzyme (setting [1]) it was 440 nM; on human Lck enzyme (setting [1]), 130 nM.

Turning to `Cc1cc(Oc2ccccc2F)ccc1-n1ncc(C(=O)c2cc3cc(OCC(F)F)c(C4CCN(C(=O)CN)CC4)cc3[nH]2)c1N` [Example 4-18-004, 2-amino-1-[4-[2-[5-amino-1-[4-(2-fluorophenoxy)-2-methylphenyl]pyrazole-4-carbonyl]-5-(2,2-difluoroethoxy)-1H-indol-6-yl]piperidin-1-yl]ethanone], the figures for the IC50 on human Yes1 enzyme (setting [1]), on human Src enzyme (setting [1]) and at human Lck enzyme (setting [1]) were 1.6 nM, 16 nM and 9.2 nM, respectively.
